Key:
Assay type in all cases: cell-based
Melan-a cells = experiment: Melanin production inhibition activity in Melan-a cells
Description: Specifically, Melan-a cells were placed on a 6-well plate (melanin quantitated) at a concentration of 2×10^5 cells/mL (final volume=3 mL) and cultured in a 10% CO2 incubator (MCO-20AIC, Sanyo) at 37° C., using RPMI 1640 containing 10% FBS and 2 μM TPA (phorbol-12-myristate 13-acetate), for 24 hours. After removing the culture medium, the nutmeg ethanol extract prepared in Example 1-1 was added to RPMI 1640 medium and treated every day for 3 days. 5 days later, the culture medium was removed from the 6-well plate and, after treating with 0.25% trypsin-EDTA solution (Sigma Chemical Co.), cell pellets were collected and transferred to a 1.5 mL tube. After centrifuging at 10,000 rpm for 10 minutes, the supernatant was removed. Thus obtained pellets were dried at 60° C. and added to 100 μL of 1N NaOH in order to dissolve melanin contained in the cells. The solution was diluted with PBS and absorbance was measured at 475 nm using an ELISA reader. Melanin content was calculated according to the following Equation 1. The group to which the nutmeg ethanol extract was not used served as the control group. [formula] […] Melan-a cells were treated with the […] isolated in Example 2-1, and the degree of melanin production was measured in the same manner as Test Example 1-1.

tyrosinase [1] = target: T1, tyrosinase (Mus musculus, UniProt P11344); experiment: Tyrosinase inhibition activity (DOPA chrome production) in treated Melan-a cells
T1 construct: endogenous in cells; host or cells: Melan-a cells (melanocytes)
T1 sequence (P11344 19-533): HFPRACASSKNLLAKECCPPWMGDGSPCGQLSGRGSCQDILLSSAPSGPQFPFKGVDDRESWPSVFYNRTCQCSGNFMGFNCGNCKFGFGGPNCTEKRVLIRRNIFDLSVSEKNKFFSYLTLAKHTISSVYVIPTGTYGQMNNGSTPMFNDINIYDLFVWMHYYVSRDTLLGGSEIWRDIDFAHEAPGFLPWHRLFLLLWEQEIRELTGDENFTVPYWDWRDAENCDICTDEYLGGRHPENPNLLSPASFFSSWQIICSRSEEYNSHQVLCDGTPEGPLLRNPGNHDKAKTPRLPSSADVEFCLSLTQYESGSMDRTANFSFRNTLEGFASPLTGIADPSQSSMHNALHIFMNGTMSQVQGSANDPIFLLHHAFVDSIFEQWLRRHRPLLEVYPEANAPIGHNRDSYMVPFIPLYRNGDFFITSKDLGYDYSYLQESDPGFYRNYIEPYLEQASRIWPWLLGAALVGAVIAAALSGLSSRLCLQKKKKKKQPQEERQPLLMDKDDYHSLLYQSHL
Description: 5 days later, the culture medium was removed from the 6-well plate and, after treating with 0.25% trypsin-EDTA solution (Sigma Chemical Co.), cell pellets were collected and transferred to a 1.5 mL tube. After adding 200 μL of phosphate buffer (pH 6.8) followed by centrifuging at 10,000 rpm for 10 minutes, the supernatant was collected. 150 μL of the supernatant was moved to a 96-well microplate and 50 μL of catechol was added. After culturing at 37° C. for 30 minutes, the amount of produced DOPA chrome was determined by measuring absorbance at 490 nm using a microplate reader.

tyrosinase [2] = experiment: Inhibition of expression of tyrosinase (Western blotting), Melan-a cells; settings: result in words
Description: (§1) Western blotting and Bradford protein assay were carried out in order to investigate if the nutmeg ethanol extract prepared in Example 1-1 inhibits the expression of tyrosinase, tyrosinase-related protein 1 (TRP-1) and tyrosinase-related proteins 2 (TRP-2).
(§2) Specifically, proteins were extracted from the cells treated in Test Example 1-1 with the nutmeg ethanol extract and subjected to electrophoresis in 10% SDS-polyacrylamide gel. Then, the proteins were transferred from the gel to a nitrocellulose membrane. After treating with 5% skim milk at room temperature for 1 hour, primary antibodies of tyrosinase, TRP-1 and TRP-2 diluted in 5% skim milk to 1:1000 were added and allowed to be incubated at room temperature for 2 hours. After the incubation, the membrane was washed with Tris-buffer saline Tween 20(TBST) twice, for 10 minutes per each, while shaking. Secondary antibodies which recognize the primary antibodies, diluted in 5% skim milk to 1:1000, were added and allowed to be incubated at room temperature for 1 hour. As for the primary antibodies, the membrane was washed with TBST three times, for 10 minutes per each, while shaking, and subjected to development by chemiluminescence.
(§3) Melan-a cells were treated with the macelignan isolated in Example 2-1, and it was investigated if the expression of tyrosinase, TRP-1 and TRP-2 was inhibited, in the same manner as Test Example 3-1.

[3] = test system: tyrosinase-related protein 1 (TRP-1); experiment: Inhibition of expression of TRP-1 (Western blotting), Melan-a cells; settings: result in words
Description: as §1, §2, §3

[4] = test system: tyrosinase-related proteins 2 (TRP-2); experiment: Inhibition of expression of TRP-2 (Western blotting), Melan-a cells; settings: result in words
Description: as §1, §2, §3

Row | DOPA chrome production inhibition (tyrosinase [1]; concentration not given) | SMILES | melanin production inhibition activity (FIG. 1, FIG. 2) (Melan-a cells; result in words, P<0.01) | DOPA chrome production / tyrosinase activity (FIG. 3, FIG. 4) (tyrosinase [1]; result in words, P<0.01) | expression of tyrosinase (FIG. 5, FIG. 6) (tyrosinase [2]) | expression of TRP-1 (FIG. 5, FIG. 6) [3] | expression of TRP-2 (FIG. 5, FIG. 6) [4] | inhibition at 50 µM (Melan-a cells; 50 μM)
1 | – | COc1cc(C[C@H](C)[C@H](C)Cc2ccc3c(c2)OCO3)ccc1O [macelignan, 4-((2S,3R)-4-benzo[1,3]dioxol-5-yl-2,3-dimethyl-butyl)-2-methoxyphenol] | superior melanin production inhibition activity | superior DOPA chrome production inhibition activity | could inhibit the expression | could inhibit the expression | could inhibit the expression | –
2 | about 60.04% | C/C=C/c1cc(OC)c2c(c1)[C@@H](C)[C@H](c1ccc3c(c1)OCO3)O2 [licarin E, 5-(7-methoxy-3-methyl-5-propenyl-2,3-dihydro-benzofuran-2-yl)-benzo[1,3]dioxole] | – | – | – | – | – | ~58.4%

Reference: patent publication US8969408B2, “Use of lignan-type compounds or extract of nutmeg or aril of nutmeg comprising the same” (Biocare Co., Ltd., priority 2007, dated 2015)
